The values below come from BindingDB's records for doi:10.1021/jm020955n (Johannes Gutenberg-Universität, 2002).

pKi: −log10 of the molar value.

This test concerns the target Glutamate receptor ionotropic, NMDA 1 glycine site (Sus scrofa). The test can be described thus: Tested for the affinity for the glycine binding site of the N-methyl-D-aspartate glutamate receptor using pig brain membranes in binding assay with [3H]-MDL- 105,519.
A word on the pKi: it is the Ki on a negative log10 scale, so that one unit is a factor of ten. A high value points to a small Ki. In turn, `O=C(O)c1cc2c(Cl)cc(Cl)cc2[nH]1` gave a pKi of 5.54. `O=C(O)c1[nH]c2cc(Cl)cc(Cl)c2c1CNS(=O)(=O)c1ccccc1` [3-(Benzenesulfonylamino-methyl)-4,6-dichloro-1H-indole-2-carboxylic acid]: the pKi was 6.00. For `O=C(O)c1[nH]c2cc(Cl)cc(Cl)c2c1CNCc1ccccc1` [3-(Benzylamino-methyl)-4,6-dichloro-1H-indole-2-carboxylic acid], the pKi was 4.04. Compared with the last compound, the pKi is 1.96 log units lower. The figure for `CC(=O)c1cccc(-n2c(O)cn(Cc3c(C(=O)O)[nH]c4cc(Cl)cc(Cl)c34)c2=O)c1` [3-[3-(3-Acetyl-phenyl)-2,4-dioxo-imidazolidin-1-ylmethyl]-4,6-dichloro-1H-indole-2-carboxylic acid] is 7.24; for `CC(=O)c1ccc(-n2c(O)cn(Cc3c(C(=O)O)[nH]c4cc(Cl)cc(Cl)c34)c2=O)cc1` [3-[3-(4-Acetyl-phenyl)-2,4-dioxo-imidazolidin-1-ylmethyl]-4,6-dichloro-1H-indole-2-carboxylic acid] it is 6.82. Under `Cc1ccc(-n2c(O)cn(Cc3c(C(=O)O)[nH]c4cc(Cl)cc(Cl)c34)c2=O)cc1` [4,6-Dichloro-3-(2,4-dioxo-3-p-tolyl-imidazolidin-1-ylmethyl)-1H-indole-2-carboxylic acid] stands 7.44.

Compound `O=C(O)c1[nH]c2cc(Cl)cc(Cl)c2c1Cn1cc(O)n(-c2ccccc2)c1=O` [4,6-Dichloro-3-(2,4-dioxo-3-phenyl-imidazolidin-1-ylmethyl)-1H-indole-2-carboxylic acid] had a pKi of 7.66. `O=C(O)c1[nH]c2cc(Cl)cc(Cl)c2c1CN1CCN(c2ccccc2)C1=O` [4,6-Dichloro-3-(2-oxo-3-phenyl-imidazolidin-1-ylmethyl)-1H-indole-2-carboxylic acid]: the negative-log Ki (pKi) is 7.24. Turning to `O=C(O)c1[nH]c2cc(Cl)cc(Cl)c2c1Cn1cc(O)n(C2CCCCC2)c1=O` [4,6-Dichloro-3-(3-cyclohexyl-2,4-dioxo-imidazolidin-1-ylmethyl)-1H-indole-2-carboxylic acid], the pKi is 6.89. This pKi lies 0.35 log units lower than the previous one. `CCn1c(O)cn(Cc2c(C(=O)O)[nH]c3cc(Cl)cc(Cl)c23)c1=O` [4,6-Dichloro-3-(3-ethyl-2,4-dioxo-imidazolidin-1-ylmethyl)-1H-indole-2-carboxylic acid] had a pKi of 6.00. The figure for `CC(C)n1c(O)cn(Cc2c(C(=O)O)[nH]c3cc(Cl)cc(Cl)c23)c1=O` [4,6-Dichloro-3-(3-isopropyl-2,4-dioxo-imidazolidin-1-ylmethyl)-1H-indole-2-carboxylic acid] is 5.98; for `O=C(O)c1[nH]c2cc(Cl)cc(Cl)c2c1Cn1cc(O)n(-c2ccccc2)c1=S` [4,6-Dichloro-3-(4-oxo-3-phenyl-2-thioxo-imidazolidin-1-ylmethyl)-1H-indole-2-carboxylic acid] it is 6.24; for `Cc1c(O)n(-c2ccccc2)c(=O)n1Cc1c(C(=O)O)[nH]c2cc(Cl)cc(Cl)c12` [4,6-Dichloro-3-(5-methyl-2,4-dioxo-3-phenyl-imidazolidin-1-ylmethyl)-1H-indole-2-carboxylic acid] it is 6.51.

`O=C(O)c1[nH]c2cc(Cl)cc(Cl)c2c1Cn1cc(O)n(-c2cc(Cl)cc(Cl)c2)c1=O` [4,6-Dichloro-3-[3-(3,5-dichloro-phenyl)-2,4-dioxo-imidazolidin-1-ylmethyl]-1H-indole-2-carboxylic acid] had a pKi of 7.10. Compared with the last compound, the pKi is 0.59 log units higher. The figure for `O=C(O)c1[nH]c2cc(Cl)cc(Cl)c2c1Cn1cc(O)n(-c2cccc(Cl)c2)c1=O` [4,6-Dichloro-3-[3-(3-chloro-phenyl)-2,4-dioxo-imidazolidin-1-ylmethyl]-1H-indole-2-carboxylic acid] is 7.07; for `O=C(O)c1[nH]c2cc(Cl)cc(Cl)c2c1Cn1cc(O)n(-c2ccc(Cl)cc2)c1=O` [4,6-Dichloro-3-[3-(4-chloro-phenyl)-2,4-dioxo-imidazolidin-1-ylmethyl]-1H-indole-2-carboxylic acid] it is 6.92; for `O=C(O)c1[nH]c2cc(Cl)cc(Cl)c2c1Cn1cc(O)n(-c2ccc(F)cc2)c1=O` [4,6-Dichloro-3-[3-(4-fluoro-phenyl)-2,4-dioxo-imidazolidin-1-ylmethyl]-1H-indole-2-carboxylic acid] it is 7.28. In the case of `COc1ccc(-n2c(O)cn(Cc3c(C(=O)O)[nH]c4cc(Cl)cc(Cl)c34)c2=O)cc1` [4,6-Dichloro-3-[3-(4-methoxy-phenyl)-2,4-dioxo-imidazolidin-1-ylmethyl]-1H-indole-2-carboxylic acid], the pKi was 7.00. Under `O=C(NCc1c(C(=O)O)[nH]c2cc(Cl)cc(Cl)c12)Nc1ccccc1` [4,6-Dichloro-3-[(3-phenyl-ureido)-methyl]-1H-indole-2-carboxylic acid] stands 7.85; under `O=C(NCc1c(C(=O)O)[nH]c2cc(Cl)cc(Cl)c12)NS(=O)(=O)c1ccccc1` [4,6-dichloro-3-[({[(phenylsulfonyl)amino]carbonyl}amino)methyl]-1H-indole-2-carboxylic acid], 7.14.
